# Assays:
# S. aureus ATCC 6538 = assay: BCT test (bacterial contact time), 60 s, log reduction / effect fraction; CI by Compusyn; type: cell-based, Staphylococcus aureus; conditions: Staphylococcus aureus, ATCC6538, 1 min, 60 s, in 25% EtOH; for log reduction at 0.08 % strength: dose 0.080 % w/v; for log reduction at 0.1 % strength: dose 0.100 % w/v
# Procedure, shortened: (§1)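 Log-phase cultures (OD600 1-2) were resuspended in TSB at about 1×10^8 bacteria/mL and mixed 1:1 with ethanolic perfume combinations or single ingredients, five replicates each. After the stated contact time, serial dilutions were grown at 37° C and viable counts derived from OD600 turbidity; log reduction is versus ethanol control.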
# S. haemolyticus 114126 = assay: BCT test (bacterial contact time), 120 s, log reduction / effect fraction; CI by Compusyn; type: cell-based; conditions: Staphylococcus haemolyticus, 114126, 2 min, contact 120 s, 25% EtOH; for log reduction at 0.1 % strength: dose 0.1% w/v; for log reduction at 0.125 % strength: dose 0.125% w/v; for log reduction at 0.15 % strength: dose 0.15% w/v; for log reduction at 0.175 % strength: dose 0.175% w/v, read-out: Log reduction; for log reduction at 0.05 % strength: dose 0.05% w/v
# Procedure: S. haemolyticus: Suspensions of the S. haemolyticus 114126 strain, isolated from skin, were prepared as follows: Stock cultures (stored at −80° C.) were thawed and sub-cultured onto TSA-TW80 agar plate media, and incubated at 37° C. for 24 h to obtain single colonies. Single colonies of the primary cultures were streaked onto fresh TSA-TW80 plates and incubated at 37° C. for 24 h to prepare secondary cultures. Single colonies of secondary cultures were picked and used to inoculate 50 mL of BHI-TW80 broth. The inoculated broth was incubated at 37° C. at 180 rpm for 18 h. Aliquots (0.5 ml) of the 18 h culture were inoculated into 50 ml of fresh BHI-TW80 broth, and incubated at 37° C. at 180 rpm for approximately 3 hours. When the OD 600 nm value of the broth reached 1-2, cells were harvested by centrifugation at 5000 rpm for 10 min, and then resuspended in fresh BHI-TW80 broth at a concentration of 1-5×10^8 CFU/mL. This suspension was used as the bacterial suspension for the BCT test.
# BCT Test: Test compositions at a range of concentrations (either combinations of more than one perfume ingredient, and comparative compositions comprising the single perfume ingredients) were prepared in ethanol. Five replicates of each test composition were added into 96-well microtiter plates (120 μl per well), with row B containing control compositions containing the ethanol solution alone. 120 μl of bacterial cell suspensions at a concentration of approximately 1×10^8 bacteria per mL (as prepared above) were added to each well of the microtiter plate. The bacterial suspensions were incubated with the test solutions for 45, 60, or 120 seconds. Following the incubation of the bacterial suspensions with the test solutions, serial dilutions of the bacterial suspensions were generated (three serial 1:10 dilutions, followed by 17 serial 1:2 dilutions), in multiwell microtiter plates.
# Each plate was sealed and incubated at 37° C. under agitation (180 rpm). After incubation, the turbidity of the wells (OD600 nm) was determined using a Tecan microplate reader. Turbid wells were regarded as positive growth, due to the presence of viable cells. The total number of viable cells (log CFU) for each sample was calculated. And the log reduction for each test composition at the final concentration (dose) was calculated against the control sample of the ethanol solution.
# Determination of Synergy via the Combination Index (CI): The CI was calculated using Compusyn software (ComboSyn, Inc., as created by Dr. Dorothy Chou in 2005), according to the manufacturer's instructions. The concentration of each test composition (combinations of more than one perfume ingredient, and comparative compositions comprising the single perfume ingredients used to generate the combination) and their corresponding effect fraction was entered, and the corresponding CI calculated.
# When the calculated CI values were less than 0.9, the combination of perfume ingredients was regarded as having synergistic effect. When the calculated CI was between 1.0 a 0.9, the combination of perfume ingredients was regarded as having an additive effect. When the calculated CI was greater than 1.0, the combination of perfume ingredients was regarded as having an antagonistic effect.
# [1] = tested on: Salmonella enterica ATCC 10708; assay: BCT test (bacterial contact time), 60 s, log reduction / effect fraction; CI by Compusyn; type: cell-based; conditions: Salmonella enterica, ATCC10708, 1 min, BCT 60 s, in 25% EtOH; for log reduction at 0.04 % strength: Dose 0.04 % w/v; for log reduction at 0.05 % strength: Dose 0.05 % w/v, read-out: Log reduction; for log reduction at 0.06 % strength: Dose 0.06 % w/v; for log reduction at 0.03 % strength: Dose 0.03 % w/v
# Procedure, shortened: as §1
# [2] = tested on: Pseudomonas aeruginosa ATCC 15442; assay: as above; type: cell-based; conditions: Pseudomonas aeruginosa, ATCC15442, 1 min, BCT 60 s, in 25% EtOH; for log reduction at 0.05 % strength: Dose 0.05 % w/v; for log reduction at 0.06 % strength: Dose 0.06 % w/v
# Procedure, shortened: as §1
# E. coli ATCC 10536 = assay: BCT test (bacterial contact time), 45 s, log reduction / effect fraction; CI by Compusyn; type: cell-based, Escherichia coli
# Procedure, shortened: as §1
# [3] = Escherichia coli, ATCC10536, 45 s, dose 0.050 % w/v, 45 s, in 20% EtOH
# [4] = Escherichia coli, ATCC10536, 45 s, dose 0.05% w/v, contact 45 s, 20% EtOH
# [5] = Escherichia coli, ATCC10536, 45 s, dose 0.060 % w/v, 45 s, in 20% EtOH
# [6] = Escherichia coli, ATCC10536, 45 s, dose 0.06% w/v, contact 45 s, 20% EtOH
# [7] = Escherichia coli, ATCC10536, 45 s, dose 0.070 % w/v, 45 s, in 20% EtOH
# [8] = Escherichia coli, ATCC10536, 45 s, dose 0.07% w/v, contact 45 s, 20% EtOH
# [9] = Escherichia coli, ATCC10536, 45 s, dose 0.080 % w/v, 45 s, in 20% EtOH
# [10] = Escherichia coli, ATCC10536, 45 s, dose 0.08% w/v, contact 45 s, 20% EtOH
# [11] = Escherichia coli, ATCC10536, 45 s, dose 0.090 % w/v, 45 s, in 20% EtOH
# [12] = Escherichia coli, ATCC10536, 45 s, dose 0.09% w/v, contact 45 s, 20% EtOH
Structure (SMILES),log reduction at 0.08 % strength (S. aureus ATCC 6538),log reduction at 0.1 % strength (S. aureus ATCC 6538),log reduction at 0.1 % strength (S. haemolyticus 114126),log reduction at 0.125 % strength (S. haemolyticus 114126),log reduction at 0.15 % strength (S. haemolyticus 114126),log reduction at 0.175 % strength (S. haemolyticus 114126),log reduction at 0.04 % strength [1],log reduction at 0.05 % strength [1],log reduction at 0.06 % strength [1],log reduction at 0.05 % strength [2],log reduction at 0.06 % strength [2],log reduction at 0.05 % strength (E. coli ATCC 10536; [3]),log reduction at 0.05 % strength (E. coli ATCC 10536; [4]),log reduction at 0.06 % strength (E. coli ATCC 10536; [5]),log reduction at 0.06 % strength (E. coli ATCC 10536; [6]),log reduction at 0.07 % strength (E. coli ATCC 10536; [7]),log reduction at 0.07 % strength (E. coli ATCC 10536; [8]),log reduction at 0.08 % strength (E. coli ATCC 10536; [9]),log reduction at 0.08 % strength (E. coli ATCC 10536; [10]),log reduction at 0.09 % strength (E. coli ATCC 10536; [11]),also measured
CCCCCCC1CCC(=O)O1 (stereo not shown) [Decal],2.4,5,0.5,0.7,1.2,3.2,0.3,0.7,1.3,1.3,2.8,0.1,0,0.7,0.9,2.4,2.8,6.4,6.1,7.1,"log reduction at 0.12 % strength (S. aureus ATCC 6538; dose 0.120 % w/v): 6.6; log reduction at 0.16 % strength (S. aureus ATCC 6538; dose 0.160 % w/v): 7.2; log reduction at 0.2 % strength (S. aureus ATCC 6538; dose 0.200 % w/v, read-out: Log reduction): 7; log reduction at 0.2 % strength (S. haemolyticus 114126; dose 0.2% w/v): 4.5; log reduction at 0.07 % strength ([1]; Dose 0.07 % w/v): 2.2; log reduction at 0.08 % strength ([1]; Dose 0.080 % w/v): 5.8; log reduction at 0.055 % strength ([2]; Dose 0.055 % w/v): 2.7; log reduction at 0.065 % strength ([2]; Dose 0.065 % w/v): 4.7; log reduction at 0.07 % strength ([2]; Dose 0.07 % w/v): 5.2; log reduction at 0.09 % strength (E. coli ATCC 10536; [12]): 7.3; Log reduction (E. coli ATCC 10536; dose 0.050 % w/v, 45 s, in 20% EtOH): 0.1"
"CC(C)=CCC/C(C)=C\CO [Nerol, (Z)-3,7-dimethyl-2,6-octadien-1-ol]",,7,1.4,4,6.2,7.4,2.2,5.6,7.3,3.6,,1.1,0.1,3.2,3.2,6.7,7,7.3,7.4,7.3,"log reduction at 0.0625 % strength (S. aureus ATCC 6538; dose 0.0625 % w/v): 1.3; log reduction at 0.075 % strength (S. aureus ATCC 6538; dose 0.075 % w/v): 3.2; log reduction at 0.125 % strength (S. aureus ATCC 6538; dose 0.125 % w/v): 7.3; log reduction at 0.15 % strength (S. aureus ATCC 6538; dose 0.150 % w/v, read-out: Log reduction): 7.5; log reduction at 0.05 % strength (S. haemolyticus 114126): 0.1; log reduction at 0.01 % strength ([1]; Dose 0.01 % w/v): 0; log reduction at 0.03 % strength [1]: 0.7; log reduction at 0.025 % strength ([2]; Dose 0.025 % w/v): 0.4; log reduction at 0.0625 % strength ([2]; Dose 0.0625 % w/v): 5.6; log reduction at 0.075 % strength ([2]; Dose 0.075 % w/v): 7.4; log reduction at 0.1 % strength ([2]; Dose 0.1 % w/v): 7.4; log reduction at 0.09 % strength (E. coli ATCC 10536; [12]): 7.4"
CC(C)=CCC/C(C)=C/CO [Geraniol Pur],4,7.3,2.7,5.3,7.1,,2.4,4.9,,3.9,5.9,1.9,,6.4,,7.4,,7.4,,,"log reduction at 0.05 % strength (S. aureus ATCC 6538; dose 0.050 % w/v): 0.2; log reduction at 0.06 % strength (S. aureus ATCC 6538; dose 0.060 % w/v): 0.4; log reduction at 0.07 % strength (S. aureus ATCC 6538; dose 0.070 % w/v): 1.5; log reduction at 0.05 % strength (S. haemolyticus 114126): -0.2; log reduction at 0.025 % strength ([1]; Dose 0.025 % w/v): 0.2; log reduction at 0.03 % strength [1]: 0.2; log reduction at 0.045 % strength ([1]; Dose 0.045 % w/v): 3.6; log reduction at 0.03 % strength ([2]; Dose 0.03 % w/v): 0.2; log reduction at 0.04 % strength ([2]; Dose 0.040 % w/v): 1.4; log reduction at 0.08 % strength ([2]; Dose 0.08 % w/v): 7.5; log reduction at 0.04 % strength (E. coli ATCC 10536; Escherichia coli, ATCC10536, 45 s, dose 0.040 % w/v, 45 s, in 20% EtOH): 0.4"

# Source: patent US12419305B2, “Antimicrobial compositions” (Firmenich SA, priority 2018, dated 2025)
